Assay results published in patent publication US20260262643A1, “HERBICIDAL BENZOXAZINES” (FMC CORPORATION, priority 2022, published 2026).

Experiments:
foxtail, giant [1] = assay: Test A postemergence; format: in vivo, Setaria faberi; conditions: 1000 g ai/ha, Postemergence; 0 to 100 scale
Procedure, shortened: (§1)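 Plants were grown in loam and sand and treated preemergence or postemergence (one- to two-leaf stage, 2–10 cm) with compound in solvent plus surfactant. Response was scored against untreated controls after 10 greenhouse days, where 0 means no effect and 100 complete control.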

ryegrass, Italian [2] = assay: Test A postemergence; format: in vivo, Lolium multiflorum; conditions: 1000 g ai/ha, Postemergence; 0 to 100 scale
Procedure, shortened: as §1

ragweed [3] = assay: Test A postemergence; format: in vivo, Ambrosia artemisiifolia; conditions: 1000 g ai/ha, Postemergence; 0 to 100 scale
Procedure, shortened: as §1

kochia [4] = assay: Test A postemergence; format: in vivo, Bassia scoparia; conditions: 1000 g ai/ha, Postemergence; 0 to 100 scale
Procedure, shortened: as §1

ryegrass, Italian [5] = assay: Test A preemergence; format: in vivo, Lolium multiflorum; conditions: 1000 g ai/ha, 0 to 100 scale (0 no effect, 100 complete control), 10 days
Procedure, shortened: as §1

barnyardgrass [6] = assay: Test A preemergence; format: in vivo, Echinochloa crusgalli; conditions: 1000 g ai/ha, 0 to 100 scale (0 no effect, 100 complete control), 10 days
Text: (§2) Seeds of plant species selected from barnyardgrass (Echinochloa crusgalli), blackgrass (Alopecurus myosuroides), corn (Zea mays), foxtail, giant (giant foxtail, Setaria faberi), goosegrass (Eleusine indica), kochia (Bassia scoparia), oat, wild (wild oat, Avena fatua), pigweed, palmer (palmer amaranth, palmer pigweed, Amaranthus palmeri), Pigweed, Redroot (redroot pigweed, Amaranthus retroflexus), ragweed (common ragweed, Ambrosia artemisiifolia), ryegrass, Italian (italian ryegrass, Lolium multiflorum), soybean (Glycine max), and wheat (Triticum aestivum) were planted into a blend of loam soil and sand and treated preemergence with a directed soil spray using test chemicals formulated in a non-phytotoxic solvent mixture which included a surfactant. At the same time, plants selected from these crops and weed species and also galium (catchweed bedstraw, Galium aparine) and horseweed (Erigeron canadensis) were planted in pots containing the same blend of loam soil and sand and treated with postemergence applications of test chemicals formulated in the same manner. Plants ranged in height from 2 to 10 cm and were in the one- to two-leaf stage for the postemergence treatment. Treated plants and untreated controls were maintained in a greenhouse for 10 days, after which time all treated plants were compared to untreated controls and visually evaluated for injury. Plant response ratings, summarized in Table A, are based on a 0 to 100 scale where 0 is no effect and 100 is complete control. A dash (-) response means no test result.

blackgrass [7] = assay: Test A preemergence; format: in vivo, Alopecurus myosuroides; conditions: 1000 g ai/ha, 0 to 100 scale (0 no effect, 100 complete control), 10 days
Procedure, shortened: as §1

horseweed = assay: Test A postemergence; format: in vivo, Erigeron canadensis; conditions: 1000 g ai/ha, Postemergence; 0 to 100 scale
Procedure, shortened: as §1

kochia [8] = assay: Test A preemergence; format: in vivo, Bassia scoparia; conditions: 1000 g ai/ha, 0 to 100 scale (0 no effect, 100 complete control), 10 days
Procedure, shortened: as §1

foxtail, giant [9] = assay: Test A preemergence; format: in vivo, Setaria faberi; conditions: 1000 g ai/ha, 0 to 100 scale (0 no effect, 100 complete control), 10 days
Procedure, shortened: as §1

pigweed, palmer [10] = assay: Test A preemergence; format: in vivo, Amaranthus palmeri; conditions: 1000 g ai/ha, 0 to 100 scale (0 no effect, 100 complete control), 10 days
Procedure, shortened: as §1

blackgrass [11] = assay: Test A postemergence; format: in vivo, Alopecurus myosuroides; conditions: 1000 g ai/ha, Postemergence; 0 to 100 scale
Procedure, shortened: as §1

pigweed, palmer [12] = assay: Test A postemergence; format: in vivo, Amaranthus palmeri; conditions: 1000 g ai/ha, Postemergence; 0 to 100 scale
Procedure, shortened: as §1

ragweed [13] = assay: Test A preemergence; format: in vivo, Ambrosia artemisiifolia; conditions: 1000 g ai/ha, 0 to 100 scale (0 no effect, 100 complete control), 10 days
Procedure, shortened: as §1

galium = assay: Test A postemergence; format: in vivo, Galium aparine; conditions: 1000 g ai/ha, Postemergence; 0 to 100 scale
Procedure, shortened: as §1

barnyardgrass [14] = assay: Test A postemergence; format: in vivo, Echinochloa crusgalli; conditions: 1000 g ai/ha, Postemergence; 0 to 100 scale
Text: as §2

Row | SMILES | Plant response rating, Foxtail, Giant (foxtail, giant [1]) | Plant response rating, Ryegrass, Italian (ryegrass, Italian [2]) | Plant response rating, Ragweed (ragweed [3]) | Plant response rating, Kochia (kochia [4]) | Plant response rating, Ryegrass, Italian (ryegrass, Italian [5]) | Plant response rating, Barnyardgrass (barnyardgrass [6]) | Plant response rating, Blackgrass (blackgrass [7]) | Plant response rating, Horseweed (horseweed) | Plant response rating, Kochia (kochia [8]) | Plant response rating, Foxtail, Giant (foxtail, giant [9]) | Plant response rating, Pigweed, Palmer (pigweed, palmer [10]) | Plant response rating, Blackgrass (blackgrass [11]) | Plant response rating, Pigweed, Palmer (pigweed, palmer [12]) | Plant response rating, Ragweed (ragweed [13]) | Plant response rating, Galium (galium) | Plant response rating, Barnyardgrass (barnyardgrass [14])
1 | Cc1cccc2c1O[C@@H](C)CN2C(=O)c1cccc(-n2cc(Cl)cn2)c1 [Compound 132] | 10 | 0 | 0 | 20 | 0 | 10 | 0 | 0 | 0 | 0 | 0 | 0 | 0 | 0 | 0 | 0
2 | Cc1cccc2c1O[C@@H](C)CN2C(=O)c1cccc(-n2cc(C#N)cn2)c1 [Compound 134] | 50 | 20 | 0 | 50 | 80 | 30 | 40 | 0 | 20 | 70 | 90 | 0 | 30 | 50 | 20 | 10
